By IC50 is commonly meant the midpoint of a concentration-inhibition curve.

For data set [1], the system named is peripheral blood mononuclear cells (PBMC). Nature of the data set: Mixed lymphocyte reaction (MLR) test. Particulars: Table 7; same conditions as example 26. Format: cell-based, human. How it is done:
All reagents were dissolved in 0.5 ml dimethylsulfoxide (hereinafter referred as DMSO) and further diluted in culture medium before use for the following in vitro experiments. The commercially available culture medium consisted of RPMI-1640+10% foetal calf serum (FCS). Peripheral blood mononuclear cells (hereinafter referred as PBMC) were isolated from heparinized peripheral blood by density gradient centrifugation over Lymphoprep (Nycomed, Maorstua, Norway). Allogeneic PBMC or […]-Barr Virus-transformed human B cells [commercially available under the trade name RPMI1788 (ATCC name CCL156)] which strongly express B7-1 and B7-2 antigens were used as stimulator cells after irradiation with 30 Gy. MLR was performed in triplicate wells. After 5 days incubation at 37° C., 1 μCi [^3H]-thymidine was added to each cup. After a further 16 hours incubation, cells were harvested and counted in a β-counter. Inhibition of proliferation by a compound (drug) described in some of the previous examples was counted using the formula: [formula] wherein cpm is the thymidine count per minute. TNF-Alpha and IL-1 Beta Assays

Data set [2] relates to TNF-alpha production by PBMC. Kind of data set: TNF-alpha assay, LPS-stimulated PBMC, sandwich ELISA. Particulars: Table 7; same conditions as example 26; read-out: TNFα IC50. Format: cell-based, human. The protocol:
(§1) All reagents were dissolved in 0.5 ml dimethylsulfoxide (hereinafter referred as DMSO) and further diluted in culture medium before use for the following in vitro experiments. The commercially available culture medium consisted of RPMI-1640+10% foetal calf serum (FCS). Peripheral blood mononuclear cells (herein referred as PBMC), in response to stimulation by lipopolysaccharide (LPS), a gram-negative bacterial endotoxin, produce various […], in particular human TNF-alpha and II-1 beta. The inhibition of the activation of PBMC can be measured by the level of suppression of the production of TNF-alpha or IL-1 beta by PBMC in response to stimulation by LPS. Such inhibition measurement was performed as follows: PBMC were isolated from heparinized peripheral blood (Buffy coat) by density gradient centrifugation. LPS is then added to the PMBC suspension in complete medium (10^6 cells/ml) at a final concentration of 1 μg/ml. The compound to be tested was added at different dilution levels, and the cells were incubated at 37° C. for 72 hours. The supernatants were collected, and TNF-alpha or II-1 beta concentrations were measured with respectively an anti-TNF antibody or an anti-IL-1 beta antibody in a sandwich ELISA. The percent inhibition was calculated as: % inhibition=(pg/ml in sample−pg/ml min.)/(pg/ml max.−pg/ml min.)−1 wherein: min.: pg/ml in culture medium without test compound, and • max.: pg/ml in culture medium+LPS without test compound.
(In an ELISA, binding on a coated surface is turned into a signal by an enzyme label.)

The test system of data set [3] is IL-1 beta production by PBMC. Nature of the data set: IL-1 beta assay, LPS-stimulated PBMC, sandwich ELISA. Format: cell-based, human. Particulars: Table 7; same conditions as example 26; read-out: IL1β IC50. The protocol: as §1
In data set [4] the test system is murine experimental allergic encephalomyelitis. Nature of the data set: Murine multiple sclerosis model (experimental allergic encephalomyelitis). Format: in vivo. To be noted: animals treated in the murine EAE model, 20 mg/kg/day.
The test system is the same in data set [5]. Particulars: mouse, in vivo; cited from earlier work.

Each structure is given as a SMILES string.

As to `Cn1c(=O)[nH]c(=O)c2nc(-c3ccc(F)cc3)c(Cl)nc21` [Example 42, 7-chloro-6-(4-fluorophenyl)-1-methyl-lumazine], the IC50 was found to be 4.8 µM in data set [1], 4.7 µM in data set [2] and 0.7 µM in data set [3]. The sign of toxicity entry in data set [4] is reported as “did not show any sign of toxicity”.

`O=C1c2c(O)ccc(O)c2C(=O)c2c(NCCNCCO)ccc(NCCNCCO)c21` [mitoxantrone]: the “heart and kidney toxicity” value in data set [5] was “induces heart and kidney toxicity”.

These data come from patent US20070043000A1, “Immunosuppresive effects of pteridine derivatives” (priority 2003, published 2007).
